The text below walks through data of US8759558B2, “Sulphur containing lipids for use as food supplement or as medicament” (Pronova Biopharma Norge AS, priority 2008, dated 2014).

Molecules are shown by their SMILES.

In one assay the test system is Wistar rat. Conditions: Wistar rat model; Willumsen et al 1997; cited from earlier work.
A further assay has as its target T1, PPARα (Homo sapiens, UniProt Q07869).
T1 construct: expressed in transfected cells; host or cells: HEK293 cells, transiently transfected
T1 sequence (Q07869 239-466 limits assumed): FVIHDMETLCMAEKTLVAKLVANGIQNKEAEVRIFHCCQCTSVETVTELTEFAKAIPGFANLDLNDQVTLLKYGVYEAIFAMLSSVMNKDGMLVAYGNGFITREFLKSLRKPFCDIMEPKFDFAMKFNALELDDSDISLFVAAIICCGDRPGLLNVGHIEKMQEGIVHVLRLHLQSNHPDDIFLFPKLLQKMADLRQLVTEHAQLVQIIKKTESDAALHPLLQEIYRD
The assay is described as follows: PPARα activation in-vitro, mammalian-one-hybrid (M1H) luciferase reporter assay, concentration response. Type of assay: cell-based. Conditions: GAL4-DBD-PPARα-LBD, transiently transfected HEK293 cells; for PPARα Efficacy: positive control GW7647. How it is done: The assay was carried out in-vitro using mammalian-one-hybrid assays (M1H) comprising GAL4-DNA binding domain-PPARα-LBD fusion constructs in conjunction with 5×GAL4-sites driven Photinus pyralis luciferase reporter construct in transiently transfected HEK293 cells.

With `CC/C=C\C/C=C\C/C=C\C/C=C\CCSCC(=O)OC` [Methyl (all-Z)-3-thia-6,9,12,15-octadecatetraenoate], the plasma triglycerides result in the assay on Wistar rat is recorded as “lowered plasma triglycerides to a similar extent”.

Regarding `CC/C=C\C/C=C\C/C=C\C/C=C\C/C=C\CCCCSC(CC)(CC)C(=O)O` [Compound (12), 2-ethyl-2-((5Z,8Z,11Z,14Z,17Z)-icosa-5,8,11,14,17-pentaenylthio)butanoic acid], on PPARα, the midpoint of the response, the EC50, lay at 286 nM and the “PPARα Efficacy” value stood at 84%.

Take `CC(C)(Sc1ccc(CCN(CCCCC2CCCCC2)C(=O)NC2CCCCC2)cc1)C(=O)O` [GW7647]: on PPARα, the “PPARα Efficacy” value was 100%.
